The supplement of paper PMC4932681
Where a name gives a salt, the structure may show the parent alone.

Assays:
[1] = test system: BT-474; assay: relative IC50 (midpoint of fitted logistic curve, plateau may be below 50% inhibition; CellTiter-Glo viability); higher = less potent; settings: 72 h
Method in brief: (§1)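 After seeding into 384-well plates with library drugs at five concentrations spanning a 10 000-fold range, breast cancer cell lines and their resistant derivatives were incubated 72 h at 37 °C. Resistant lines received medium with 1 μM of the selecting drug. CellTiter-Glo signal was read on a PHERAstar and scaled to vehicle-only and positive controls. Drug sensitivity score, relative IC50 (the curve midpoint) and top-dose inhibition came from logistic fits run in the Breeze pipeline.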

[2] = test system: T-47D Tam1; assay: as above; settings: 4-OH-tamoxifen in medium 1 µM; 72 h
Method in brief: as §1

[3] = test system: MCF-7 Tam1; assay: as above; settings: 4-OH-tamoxifen in medium 1 µM; 72 h
Method in brief: as §1

[4] = test system: ZR-75-1; assay: as above; settings: 72 h
Method in brief: as §1

[5] = test system: T-47D; assay: as above; settings: 72 h
Method in brief: as §1

[6] = test system: ZR-75-1 Tam2; assay: as above; settings: 4-OH-tamoxifen in medium 1 µM; 72 h
Method in brief: as §1

[7] = test system: BT-474 Tam1; assay: as above; settings: 4-OH-tamoxifen in medium 1 µM; 72 h
Method in brief: as §1

[8] = test system: MCF-7; assay: as above; settings: 72 h
Method in brief: as §1

[9] = test system: ZR-75-1 Tam1; assay: as above; settings: 4-OH-tamoxifen in medium 1 µM; 72 h
Method in brief: as §1

[10] = test system: T-47D Tam2; assay: as above; settings: 4-OH-tamoxifen in medium 1 µM; 72 h
Method in brief: as §1

[11] = test system: BT-474; assay: drug sensitivity score (DSS) (DSS (dimensionless)); higher = more sensitive; extreme values may be limits of the assay; settings: 72 h
Method in brief: as §1

[12] = test system: T-47D Tam1; assay: as above; settings: 4-OH-tamoxifen in medium 1 µM; 72 h
Method in brief: as §1

[13] = test system: MCF-7 Tam1; assay: as above; settings: 4-OH-tamoxifen in medium 1 µM; 72 h
Method in brief: as §1

[14] = test system: ZR-75-1; assay: as above; settings: 72 h
Method in brief: as §1

[15] = test system: T-47D; assay: as above; settings: 72 h
Method in brief: as §1

[16] = test system: ZR-75-1 Tam2; assay: as above; settings: 4-OH-tamoxifen in medium 1 µM; 72 h
Method in brief: as §1

[17] = test system: BT-474 Tam1; assay: as above; settings: 4-OH-tamoxifen in medium 1 µM; 72 h
Method in brief: as §1

[18] = test system: MCF-7; assay: as above; settings: 72 h
Method in brief: as §1

[19] = test system: ZR-75-1 Tam1; assay: as above; settings: 4-OH-tamoxifen in medium 1 µM; 72 h
Method in brief: as §1

[20] = test system: T-47D Tam2; assay: as above; settings: 4-OH-tamoxifen in medium 1 µM; 72 h
Method in brief: as §1

[21] = test system: BT-474 Tam2; assay: as above; settings: 4-OH-tamoxifen in medium 1 µM; 72 h
Method in brief: as §1

[22] = test system: BT-474 Tam2; assay: relative IC50 (midpoint of fitted logistic curve, plateau may be below 50% inhibition; CellTiter-Glo viability); higher = less potent; settings: 4-OH-tamoxifen in medium 1 µM; 72 h
Method in brief: as §1

Structure (SMILES)	relative IC50 ([1]; 4-OH-tamoxifen in medium 0 µM)	relative IC50 ([1]; 4-OH-tamoxifen in medium 1 µM)	relative IC50 [2]	relative IC50 [3]	relative IC50 ([4]; 4-OH-tamoxifen in medium 0 µM)	relative IC50 ([4]; 4-OH-tamoxifen in medium 1 µM)	relative IC50 ([5]; 4-OH-tamoxifen in medium 0 µM)	relative IC50 ([5]; 4-OH-tamoxifen in medium 1 µM)	relative IC50 [6]	relative IC50 [7]	relative IC50 ([8]; 4-OH-tamoxifen in medium 0 µM)	relative IC50 ([8]; 4-OH-tamoxifen in medium 1 µM)	relative IC50 [9]	relative IC50 [10]	drug sensitivity score ([11]; 4-OH-tamoxifen in medium 0 µM)	drug sensitivity score ([11]; 4-OH-tamoxifen in medium 1 µM)	drug sensitivity score [12]	drug sensitivity score [13]	drug sensitivity score ([14]; 4-OH-tamoxifen in medium 0 µM)	drug sensitivity score ([14]; 4-OH-tamoxifen in medium 1 µM)	drug sensitivity score ([15]; 4-OH-tamoxifen in medium 0 µM)	drug sensitivity score ([15]; 4-OH-tamoxifen in medium 1 µM)	drug sensitivity score [16]	drug sensitivity score [17]	drug sensitivity score ([18]; 4-OH-tamoxifen in medium 0 µM)	drug sensitivity score ([18]; 4-OH-tamoxifen in medium 1 µM)	drug sensitivity score [19]	drug sensitivity score [20]	drug sensitivity score [21]	relative IC50 [22]
COc1cccc2c1C(=O)c1c(O)c3c(c(O)c1C2=O)C[C@@](O)(C(=O)CO)C[C@@H]3O[C@H]1C[C@H](N)[C@H](O)[C@H](C)O1 [Doxorubicin]	374 nM	424 nM	171 nM	0.387 µM	199 nM	214 nM	154 nM	396 nM	0.144 µM	399 nM	247 nM	331 nM	0.286 µM	300 nM	3	3.73	6.83	2.46	4.96	6.3	6.88	3.36	7.21	2.96	5.29	3.47	4.65	4.23	0.115	
S=P(N1CC1)(N1CC1)N1CC1 [Thio-TEPA]	> 100000 nM	> 100000 nM	> 100000 nM	> 100 µM	> 100000 nM	> 100000 nM	> 100000 nM	> 100000 nM	> 100 µM	> 100000 nM	> 100000 nM	> 100000 nM		> 100000 nM	0	0	0	0	0	0	0	0	0	0	0	0	0.276	0	0	> 100000 nM
COc1cc(Nc2ncc(F)c(Nc3ccc4c(n3)N(COP(=O)(O)O)C(=O)C(C)(C)O4)n2)cc(OC)c1OC	> 10000 nM	2920 nM	1430 nM	6.95 µM	> 10000 nM		2340 nM	2890 nM	3.16 µM	3560 nM	1790 nM	2360 nM		2270 nM	0	2.25	4.15	1.04	0	0.307	2.65	1.95	1.42	2.63	2.7	4.99	1.22	3.3	0	> 10000 nM
Oc1ccc2c(c1)CC[C@H](c1ccccc1)[C@@H]2c1ccc(OCCN2CCCC2)cc1 [Lasofoxifene]	> 1000 nM		> 1000 nM	> 1 µM	> 1000 nM	> 1000 nM	> 1000 nM	> 1000 nM	> 1 µM	449 nM			> 1 µM	> 1000 nM	0	0.881	0	0	0	0	0	0	0	1.01	1.49	0.854	0	0	0.434	
O=C(/C=C/c1cccnc1)NCCCCC1CCN(C(=O)c2ccccc2)CC1 [Daporinad (FK-866 HCl)]		74.3 nM	3.87 nM	> 1 µM	> 1000 nM	> 1000 nM	7.21 nM	13.2 nM	> 1 µM	94.3 nM	19 nM	54.1 nM	> 1 µM	14.7 nM	0	8.73	27.2	0	0	0	24.1	20.7	0	5.63	15.8	10.4	0	18.9	1.29	
CN1CCC(COc2cnc(-c3cccc(Cn4nc(-c5cccc(C#N)c5)ccc4=O)c3)nc2)CC1	> 1000 nM	> 1000 nM	314 nM	> 1 µM	> 1000 nM	> 1000 nM	> 1000 nM	> 1000 nM	> 1 µM	> 1000 nM	> 1000 nM		> 1 µM	> 1000 nM	0	0	3.13	0	0	0	0	0	0	0	0	0.0353	0	0	1.22	
Clc1ccc(Nc2nnc(Cc3ccncc3)c3ccccc23)cc1 [Vatalanib]	> 10000 nM	> 10000 nM	> 10000 nM	> 10 µM	> 10000 nM	> 10000 nM	> 10000 nM	> 10000 nM	> 10 µM		> 10000 nM	> 10000 nM	> 10 µM	> 10000 nM	0	0	0	0	0	0	0	0	0	0	0	0	0	0	0.0042	
CNC(=O)c1ccc(N2C(=S)N(c3ccc(C#N)c(C(F)(F)F)c3)C(=O)C23CCC3)cc1F [RD162]	> 10000 nM	> 10000 nM	> 10000 nM	> 10 µM	> 10000 nM	> 10000 nM	> 10000 nM		> 10 µM		> 10000 nM		> 10 µM	> 10000 nM	0	0	0	0	0	0	0	0.215	0	0.0464	0	1.42	0	0	0.498	
COc1cc(Nc2c(C#N)cnc3cc(OCCCN4CCN(C)CC4)c(OC)cc23)c(Cl)cc1Cl [Bosutinib]	2950 nM	1130 nM	1320 nM	4.02 µM			2480 nM	3380 nM	3.19 µM	1580 nM	3140 nM	4010 nM		1780 nM	4.93	10.5	7.41	2.05	0.173	0.731	2.64	3.44	3.08	8.93	4.57	3.41	0.537	6.72	8.71	1610 nM
CC1(C)NC(=O)N(c2ccc([N+](=O)[O-])c(C(F)(F)F)c2)C1=O [Nilutamide]	> 10000 nM	> 10000 nM	> 10000 nM	> 10 µM	> 10000 nM	> 10000 nM	> 10000 nM	> 10000 nM	> 10 µM	> 10000 nM	> 10000 nM		> 10 µM	> 10000 nM	0	0	0	0	0	0	0	0	0	0	0	0.145	0	0	0	
O=NN(CCCl)C(=O)NC1CCCCC1 [Lomustine]	> 10000 nM	> 10000 nM	> 10000 nM	> 10 µM	> 10000 nM	> 10000 nM	> 10000 nM	> 10000 nM	> 10 µM				> 10 µM	> 10000 nM	0	0	0	0	0	0	0	0	0	0	0.0319	0.0924	0	0	0	> 10000 nM
CCN(CC)CCCC(C)Nc1ccnc2cc(Cl)ccc12 (stereo not drawn) [Chloroquine]	> 990000 nM	> 990000 nM	> 990000 nM	> 990 µM	> 990000 nM	> 990000 nM	> 990000 nM	> 990000 nM	> 990 µM		> 990000 nM	> 990000 nM	> 990 µM	> 990000 nM	0	0	0	0	0	0	0	0	0	0.266	0	0	0	0	0.999	
COC1=CC(c2cc3ccccc3[nH]2)=N/C1=C\c1[nH]c(C)cc1C [Obatoclax (GX15-070)]	1270 nM		797 nM	1.79 µM	2380 nM	1710 nM	2220 nM	2600 nM	1.42 µM	1590 nM	3660 nM	1100 nM		1530 nM	6.87	0.367	8.83	4.3	1.96	2.4	3.35	2.73	4.94	3.09	2	8.57	1.02	3.22	12.1	619 nM
CC[C@@H]1C(=O)OC[C@@H]1Cc1cncn1C [Pilocarpine]	> 40000 nM	> 40000 nM	> 40000 nM	> 40 µM	> 40000 nM	> 40000 nM	> 40000 nM	> 40000 nM	> 40 µM	> 40000 nM	> 40000 nM	> 40000 nM	> 40 µM	> 40000 nM	0	0	0	0	0	0	0	0	0	0	0	0	0	0	0	
O=C(Nc1c[nH]nc1-c1nc2ccc(CN3CCOCC3)cc2[nH]1)NC1CC1 [AT9283]	> 1000 nM	> 1000 nM	> 1000 nM	> 1 µM	> 1000 nM	> 1000 nM	> 1000 nM	> 1000 nM	> 1 µM	> 1000 nM	> 1000 nM	> 1000 nM	> 1 µM	> 1000 nM	0	0	0	0	0	0	0	0	0	0	0	0	0	0	0	
